“And” between values parts separate entries of the source, which are not always exact repeats. Equal values may be shown once.
Key:
soybean lipoxygenase = target: T1, soybean lipoxygenase (Glycine max, UniProt P08170); assay: Soybean lipoxygenase inhibition study in vitro (UV-based enzyme assay); assay type: biochemical; conditions: for IC50: sodium linoleate 0.1 mM, read-out: LOX IC50 (±SD); for inhibition at 10 µM: 0.01 mM, read-out: LOX inhibition % (±SD)
T1 construct: purchased Sigma Chemical, Co. (St. Louis, MO, USA)
T1 sequence (P08170 1-839): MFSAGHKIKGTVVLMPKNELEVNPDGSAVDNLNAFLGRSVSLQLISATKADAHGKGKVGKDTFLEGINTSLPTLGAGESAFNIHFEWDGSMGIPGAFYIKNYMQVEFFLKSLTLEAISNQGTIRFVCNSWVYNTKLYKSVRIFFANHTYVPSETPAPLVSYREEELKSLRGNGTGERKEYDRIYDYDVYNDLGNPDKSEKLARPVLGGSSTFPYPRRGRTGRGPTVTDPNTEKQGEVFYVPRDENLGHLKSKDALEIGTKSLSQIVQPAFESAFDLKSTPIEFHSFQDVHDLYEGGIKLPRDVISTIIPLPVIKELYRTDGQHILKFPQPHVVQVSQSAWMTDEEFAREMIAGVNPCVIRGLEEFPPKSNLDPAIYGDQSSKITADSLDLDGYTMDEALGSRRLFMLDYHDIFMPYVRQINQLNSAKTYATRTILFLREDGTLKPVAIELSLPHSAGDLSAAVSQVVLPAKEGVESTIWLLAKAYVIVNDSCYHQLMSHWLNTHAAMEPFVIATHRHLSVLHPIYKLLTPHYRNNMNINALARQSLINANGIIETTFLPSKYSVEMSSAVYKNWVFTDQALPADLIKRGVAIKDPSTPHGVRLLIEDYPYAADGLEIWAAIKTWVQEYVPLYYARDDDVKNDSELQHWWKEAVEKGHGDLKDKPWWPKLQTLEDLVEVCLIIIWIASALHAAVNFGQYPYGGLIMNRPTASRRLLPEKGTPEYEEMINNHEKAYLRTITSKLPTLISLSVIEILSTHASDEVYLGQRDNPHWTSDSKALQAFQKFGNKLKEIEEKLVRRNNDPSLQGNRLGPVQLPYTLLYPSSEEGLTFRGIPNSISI
Procedure: The evaluation of the novel acids against soybean lipoxygenase LOX was accomplished by the UV-based enzyme assay of Pontiki and Hadjipavlou-Litina. This assay may be used as a qualitative or semi-quantitative screen for such activity.
In vitro inhibitory LOX assay is accomplished as described previously. The novel derivatives for testing (stock solutions 10 mM in DMSO) were incubated at room temperature with sodium linoleate (0.1 mM) and 0.2 mL of LOX enzyme solution (1/9 × 10^−4w/v in saline). The conversion of sodium linoleate to 13-hydroperoxylinoleic acid was measured at 234 nm and compared with the reference inhibitor. Several concentrations were used for the IC50 determination (Table 2).

MRC-5 normal cells = assay: SRB cytotoxicity assay, MRC-5 normal cells; assay type: cell-based; conditions: Homo sapiens, MRC5, 50% growth inhibition, 48 h exposure
Procedure: Thus, we conducted in vitro studies in two colon cancer cell lines (HT-29 and HCT-15) reported time and dose-dependent stimulation of cell proliferation by LTB4 and 12-HETE [46]. The synthesized acids have been tested in five different human tumour cell lines: HT-29 (colon), A-549 (lung), OAW-42 (ovarian), MDA-MB-231 (breast), HeLa (immortal cells from cervical cancer) and MRC-5 normal cells.
Cell passages were carried out by detaching adherent, logarithmically growing cells after addition of 2–3 mL of a mixture of 0.05% solution of trypsin (Gibco, 1:250) in phosphate-buffered saline (PBS) with 0.02% EDTA and incubation for 3–5 min at 37 °C. For the experiments, cells were plated (100 μL containing 10,000 cells/well) in 96-well flat-bottom microplates microplates (Costar-Corning, Acton, MA 01720, USA) so that untreated cells were in exponential growth phase at the time of cytotoxicity evaluation. Cells were left for 24 h at 37 °C to resume exponential growth and stabilization and afterwards exposed to tested agents for 48 h by the addition of an equal volume (100 μL) of either complete culture medium (control wells), or twice the final drug concentrations diluted in complete culture medium (test wells). Drug cytotoxicity was measured by means of the SRB colorimetric assay estimating the survival fractions (SF) as the percent of control (untreated cells) absorbance. The SRB assay was carried out as previously described and modified by our group. In brief, culture medium was aspirated prior to fixation using a microplate-multiwash device (Tri-Continent Scientific, Inc., Grass Valley, CA, USA) and 50 μL of 10% cold (4 °C) trichloroacetic acid (TCA) were gently added to the wells. Microplates were left for 30 min at 4 °C, washed five times with deionized water and left to dry at room temperature for at least 24 h. Subsequently, 70 μL of 0.4% (w/v) sulforhodamine B (Sigma) in 1% acetic acid solution were added to each well and left at room temperature for 20 min. SRB was removed and the plates were washed five times with 1% acetic acid before air drying. Bound SRB was solubilized with 200 μL of 10 mM unbuffered Tris-base solution and plates were left on a plate shaker for at least 10 min. Absorbance was read in a 96-well plate reader at 492 nm subtracting the background measurement at 620 nm. The test optical density (OD) value was defined as the absorbance of each individual well, minus the blank value (“blank” is the mean optical density of the background control wells, n = 8). Mean values and the coefficient of variation (CV) from six replicate wells were calculated automatically. Results were expressed as the “survival fraction” (SF), as shown below.
For each tested compound a dose-effect curve was produced. Sextuplicate determinations gave a CV (Standard Deviation/mean %) of much less than 10%, resulting in standard error (SE) which was very low in all cases. The data showing inhibition of cellular growth are expressed as the fraction of cells that remains unaffected (fu) (survival fraction, SF), which is derived from the following equation: fu = ODx/ODc where ODx and ODc represent the test and the control optical density, respectively.

[1] = ABTS+ decolorization assay; conditions: 0.1 mM
Procedure: The ABTS^•+ is derived from the oxidation of ABTS by potassium persulfate. It is a decolorization assay. The addition of electron-donating antioxidants leads to ABTS^•+ reduction. The chemistry taking place involves the direct generation of the ABTS^•+ with no involvement of an intermediary radical.
In this assay, ethanol is used for the dilution of the ABTS^+• solution. ABTS is dissolved in water to a 7 mM and reacts with 2.45 mM […] to produce the ABTS radical cation (ABTS^+•) by allowing the mixture to stand in the dark at room temperature for 12–16 h before use. Ten μL of diluted ABTS^+• solution (734 nm) is added to 10 μL of antioxidant compounds or Trolox standards (final concentration 0–0.1 mM) in ethanol and the absorbance is measured at 30 °C exactly 1 min after the initial mixing (Table 3).

Row | Compound | IC50 (soybean lipoxygenase) [µM] | inhibition at 10 µM (soybean lipoxygenase) [%] | IC50 (MRC-5 normal cells) [µM] | ABTS+· (%) (±SD) [1]
1 | N#Cc1ccc(C=C(C(=O)O)c2ccccc2)cc1 [Compound 1i, 3-(4-Cyanophenyl)-2-phenylacrylic acid] | 60 ± 0.4 |  | 222 ± 1.3 | 26 ± 0.4%
2 | O=C(O)C(=CC=Cc1ccccc1)c1ccccc1 [Compound 3i, 2,5-Diphenylpenta-2,4-dienoic acid] | 74 ± 1.7 |  | > 240 | 26 ± 0.8%
3 | O=C(O)C(=CC=Cc1ccc([N+](=O)[O-])cc1)c1ccccc1 [Compound 2i, 5-(4-Nitrophenyl)-2-phenylpenta-2,4-dienoic acid] | 66.5 ± 1.2 |  | 96.3 ± 1.1 | 26 ± 0.5%
4 | N#Cc1ccc(C=CC(=O)O)cc1 [Compound 1ii, 3-(4-Cyanophenyl)acrylic acid] |  | 27 | > 240 | 47.4% and 47 ± 0.8%
5 | O=C(O)C=CC=Cc1ccc([N+](=O)[O-])cc1 [Compound 2ii, 5-(4-Nitrophenyl)penta-2,4-dienoic acid] |  | 31 | 240 ± 1 | 35 ± 0.9%

Continued, in another order:

Row | IC50 (soybean lipoxygenase) [µM] | inhibition at 10 µM (soybean lipoxygenase) [%] | Compound | IC50 (MRC-5 normal cells) [µM] | ABTS+· (%) (±SD) [1]
6 | 10 ± 0.05 |  | O=C(O)C=CC(Br)=Cc1ccccc1 [Compound 4ii, 4-Bromo-5-phenylpenta-2,4-dienoic acid] | 24 ± 0.6 | 26 ± 0.4%
7 | 74 ± 1.8 |  | O=C(O)C(=CC(Br)=Cc1ccccc1)c1ccccc1 [Compound 4i, 4-Bromo-2,5-diphenylpenta-2,4-dienoic acid] | 92 ± 1.3 | 24 ± 0.5%
8 |  | 24 | O=C(O)C=CC=Cc1ccccc1 [Compound 3ii, 5-Phenylpenta-2,4-dienoic acid] | 240 ± 1.8 | 31 ± 1.1%

— publication PMC6270778, “Novel Cinnamic Acid Derivatives as Antioxidant and Anticancer Agents: Design, Synthesis and Modeling Studies” (Molecules, 2014)
